These results are taken from paper PMC4008261, “Rewiring of regenerated axons by combining treadmill training with semaphorin3A inhibition” (Molecular Brain, 2014).

For experiment [1], the target named is Semaphorin (Homo sapiens, UniProt Q14563). As to the kind of experiment: Pharmacological profile: semaphorin inhibition. The format is cell-based. The text has this:
In our previous study, we used an osmotic mini-pump to deliver the semaphorin3A inhibitor SM-216289 [20]. However, in clinical practice, this type of invasive drug delivery method is not ideal. Therefore, we developed a novel DDS that utilizes a silicone matrix to continuously deliver SM-345431 (a newly developed semaphorin3A inhibitor) intrathecally. We evaluated the drug release profile of SM-345431 in this new silicone matrix preparation and the potency of SM-345431-mediated semaphorin3A inhibition in vitro (Figure 1). […] When chick embryonic DRG explants and semaphorin3A-expressing COS7 cell aggregates (semaphorin3A-COS) were co-cultured in a collagen gel, the neurites of the DRG explants grew away from the semaphorin3A-COS, as shown in Figure 1B. […] We also evaluated the selectivity of SM-345431 for semaphorin3A inhibition by examining the pharmacological profile of SM-345431 (Tables 1 and 2). […] The release of SM-345431 (0.1 mg/mg loading 10%) in vivo was calculated as 0.5-0.7 μg/day, and this dose was similar to the dose of the semaphorin3A inhibitor (SM-216289) that we administered using osmotic mini pumps in our previous study. […]

Experiment [2] relates to Adhesion, ICAM-1-Mediated. As to the kind of experiment: Pharmacological profile: cell adhesion. The class given is cell-based. From the text:
(§1) Table 1 Pharmacological profile of SM-345431 (part 1) | column: IC50 (μm)

The test system of experiment [3] is Adhesion, VCAM-1-Mediated. As to the kind of experiment: Pharmacological profile: cell adhesion. The format is cell-based.
Excerpt: as §1

In experiment [4] the test system is Adhesion, fibronectin-mediated. As to the kind of experiment: Pharmacological profile: cell adhesion. The format is cell-based.
Excerpt: as §1

Experiment [5] has as its system Mediator release, IFN-gamma. As to the kind of experiment: Pharmacological profile: mediator release. The class given is cell-based.
Excerpt: as §1

The subject of experiment [6] is Mediator release, IL-10. As to the kind of experiment: Pharmacological profile: mediator release. The format is cell-based.
Excerpt: as §1

In experiment [7] the test system is Mediator release, IL-1beta. As to the kind of experiment: Pharmacological profile: mediator release. The class given is cell-based.
Excerpt: as §1

In experiment [8] the test system is Mediator release, IL-2. As to the kind of experiment: Pharmacological profile: mediator release. The format is cell-based.
Excerpt: as §1

Experiment [9] has as its system Mediator release, IL-4. As to the kind of experiment: Pharmacological profile: mediator release. The format is cell-based.
Excerpt: as §1

The subject of experiment [10] is Mediator release, IL-5. As to the kind of experiment: Pharmacological profile: mediator release. The class given is cell-based.
Excerpt: as §1

The test system of experiment [11] is Mediator release, IL-6. As to the kind of experiment: Pharmacological profile: mediator release. The format is cell-based.
Excerpt: as §1

Experiment [12] relates to Mediator release, TNF-alfa, PBML. As to the kind of experiment: Pharmacological profile: mediator release. The format is cell-based.
Excerpt: as §1

Experiment [13] has as its target EphB2 (Homo sapiens, UniProt P29323). As to the kind of experiment: Kinase inhibition test. The class given is biochemical. From the text:
(§2) Table 2 Pharmacological profile of SM-345431 (part 2) | column: IC50 (μm)

Experiment [14] addresses FGFR1 (Homo sapiens, UniProt P11362). As to the kind of experiment: Kinase inhibition test. The format is biochemical.
Excerpt: as §2

Experiment [15] deals with Flt1 (Homo sapiens, UniProt P17948). As to the kind of experiment: Kinase inhibition test. The class given is biochemical.
Excerpt: as §2

The target of experiment [16] is GSK3α (Homo sapiens, UniProt P49840). As to the kind of experiment: Kinase inhibition test. The class given is biochemical.
GSK3α, sequence (P49840 whole entry, species assumed): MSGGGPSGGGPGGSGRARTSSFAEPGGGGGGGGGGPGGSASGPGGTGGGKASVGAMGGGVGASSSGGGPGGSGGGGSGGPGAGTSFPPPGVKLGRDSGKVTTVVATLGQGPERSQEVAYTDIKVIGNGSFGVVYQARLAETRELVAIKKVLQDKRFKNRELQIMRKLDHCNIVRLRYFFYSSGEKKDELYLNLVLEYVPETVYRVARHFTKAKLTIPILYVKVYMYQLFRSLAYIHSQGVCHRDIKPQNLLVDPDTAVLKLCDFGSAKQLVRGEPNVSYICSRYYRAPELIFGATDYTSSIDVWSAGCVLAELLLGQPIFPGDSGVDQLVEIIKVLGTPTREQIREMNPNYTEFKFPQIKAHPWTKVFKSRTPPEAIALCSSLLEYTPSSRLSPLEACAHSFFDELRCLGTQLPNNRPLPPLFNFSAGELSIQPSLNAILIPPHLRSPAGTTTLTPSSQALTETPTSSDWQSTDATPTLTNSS
Excerpt: as §2

Experiment [17] concerns the target JAK3 (Homo sapiens, UniProt P52333). As to the kind of experiment: Kinase inhibition test. The class given is biochemical.
Excerpt: as §2

Experiment [18] addresses KDR (Homo sapiens, UniProt P35968). As to the kind of experiment: Kinase inhibition test. The class given is biochemical.
Excerpt: as §2

Experiment [19] has as its target T1, semaphorin3A (Homo sapiens, UniProt Q14563).
T1 sequence (Q14563 21-771): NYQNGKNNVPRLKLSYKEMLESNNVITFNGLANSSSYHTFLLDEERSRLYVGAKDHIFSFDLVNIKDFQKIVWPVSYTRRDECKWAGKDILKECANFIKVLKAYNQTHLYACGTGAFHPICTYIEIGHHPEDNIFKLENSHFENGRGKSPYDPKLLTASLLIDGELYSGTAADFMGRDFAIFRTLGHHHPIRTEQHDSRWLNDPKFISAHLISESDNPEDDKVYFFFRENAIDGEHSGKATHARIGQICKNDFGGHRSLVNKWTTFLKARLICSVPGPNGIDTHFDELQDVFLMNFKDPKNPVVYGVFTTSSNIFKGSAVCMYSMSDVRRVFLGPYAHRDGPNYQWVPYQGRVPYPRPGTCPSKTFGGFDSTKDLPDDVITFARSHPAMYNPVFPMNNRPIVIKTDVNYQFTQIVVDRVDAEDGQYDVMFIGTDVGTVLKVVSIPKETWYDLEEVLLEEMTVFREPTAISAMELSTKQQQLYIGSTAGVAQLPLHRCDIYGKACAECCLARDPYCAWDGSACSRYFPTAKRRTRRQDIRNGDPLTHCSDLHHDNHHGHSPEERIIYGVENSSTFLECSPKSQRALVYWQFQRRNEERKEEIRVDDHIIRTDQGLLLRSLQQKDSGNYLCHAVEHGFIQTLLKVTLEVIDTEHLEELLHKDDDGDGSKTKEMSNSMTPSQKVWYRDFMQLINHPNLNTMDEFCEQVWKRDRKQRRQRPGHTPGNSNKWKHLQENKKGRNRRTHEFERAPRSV
As to the kind of experiment: Growth cone collapse assay, E8 chick DRG. More on the design: expressed in transfected cells; host or cells: COS7. The settings on record: read-out: semaphorin3A inhibiting activity, IC50. The class given is cell-based. The procedure: The growth cone collapse assay and collagen co-culture experiments were performed as previously described. To examine the effects of SM-345431-silicone, small pieces (2 × 1 × 0.3 mm; approximately 1 mg containing 1 μg of SM-345431) of the SM-345431-silicone or control-silicone were placed in a collagen gel adjacent to E8 chick DRGs and COS7 cell aggregates, as shown in Figure 1C.

KDR, sequence (P35968 20-1356, species assumed): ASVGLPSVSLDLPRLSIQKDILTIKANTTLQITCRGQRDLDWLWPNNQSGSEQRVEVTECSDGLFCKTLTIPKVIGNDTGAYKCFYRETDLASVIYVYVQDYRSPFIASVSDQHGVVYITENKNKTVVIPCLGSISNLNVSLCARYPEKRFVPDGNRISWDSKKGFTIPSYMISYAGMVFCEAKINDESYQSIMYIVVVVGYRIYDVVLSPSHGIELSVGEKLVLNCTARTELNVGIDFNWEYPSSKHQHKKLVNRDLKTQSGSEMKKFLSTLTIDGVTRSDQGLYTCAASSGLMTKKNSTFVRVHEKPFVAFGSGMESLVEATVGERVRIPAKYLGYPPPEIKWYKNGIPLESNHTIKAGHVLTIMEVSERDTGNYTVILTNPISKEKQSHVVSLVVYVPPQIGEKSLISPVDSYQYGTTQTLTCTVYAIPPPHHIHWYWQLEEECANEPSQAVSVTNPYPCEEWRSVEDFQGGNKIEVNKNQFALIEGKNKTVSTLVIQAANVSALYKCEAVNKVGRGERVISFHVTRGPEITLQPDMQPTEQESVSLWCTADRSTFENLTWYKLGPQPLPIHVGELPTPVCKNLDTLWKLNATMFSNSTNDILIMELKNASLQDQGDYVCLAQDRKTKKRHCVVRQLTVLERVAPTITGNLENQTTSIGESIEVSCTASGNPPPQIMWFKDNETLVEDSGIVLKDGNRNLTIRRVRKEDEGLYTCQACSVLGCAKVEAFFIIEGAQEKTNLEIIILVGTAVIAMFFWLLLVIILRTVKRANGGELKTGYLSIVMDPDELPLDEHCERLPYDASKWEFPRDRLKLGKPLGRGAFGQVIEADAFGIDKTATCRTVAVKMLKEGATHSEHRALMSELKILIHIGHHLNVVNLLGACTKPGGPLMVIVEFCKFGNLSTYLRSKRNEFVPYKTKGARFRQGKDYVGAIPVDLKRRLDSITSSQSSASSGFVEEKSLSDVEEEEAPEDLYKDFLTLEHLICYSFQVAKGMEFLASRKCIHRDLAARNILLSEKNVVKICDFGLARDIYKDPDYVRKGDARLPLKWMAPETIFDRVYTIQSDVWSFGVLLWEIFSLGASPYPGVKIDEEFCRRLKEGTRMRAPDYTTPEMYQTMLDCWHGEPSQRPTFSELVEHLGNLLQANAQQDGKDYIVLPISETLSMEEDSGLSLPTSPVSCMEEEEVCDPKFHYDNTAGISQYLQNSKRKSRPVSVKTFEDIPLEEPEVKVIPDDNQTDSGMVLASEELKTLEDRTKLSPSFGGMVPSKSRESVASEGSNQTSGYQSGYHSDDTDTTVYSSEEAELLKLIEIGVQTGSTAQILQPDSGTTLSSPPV
JAK3, sequence (P52333 whole entry, species assumed): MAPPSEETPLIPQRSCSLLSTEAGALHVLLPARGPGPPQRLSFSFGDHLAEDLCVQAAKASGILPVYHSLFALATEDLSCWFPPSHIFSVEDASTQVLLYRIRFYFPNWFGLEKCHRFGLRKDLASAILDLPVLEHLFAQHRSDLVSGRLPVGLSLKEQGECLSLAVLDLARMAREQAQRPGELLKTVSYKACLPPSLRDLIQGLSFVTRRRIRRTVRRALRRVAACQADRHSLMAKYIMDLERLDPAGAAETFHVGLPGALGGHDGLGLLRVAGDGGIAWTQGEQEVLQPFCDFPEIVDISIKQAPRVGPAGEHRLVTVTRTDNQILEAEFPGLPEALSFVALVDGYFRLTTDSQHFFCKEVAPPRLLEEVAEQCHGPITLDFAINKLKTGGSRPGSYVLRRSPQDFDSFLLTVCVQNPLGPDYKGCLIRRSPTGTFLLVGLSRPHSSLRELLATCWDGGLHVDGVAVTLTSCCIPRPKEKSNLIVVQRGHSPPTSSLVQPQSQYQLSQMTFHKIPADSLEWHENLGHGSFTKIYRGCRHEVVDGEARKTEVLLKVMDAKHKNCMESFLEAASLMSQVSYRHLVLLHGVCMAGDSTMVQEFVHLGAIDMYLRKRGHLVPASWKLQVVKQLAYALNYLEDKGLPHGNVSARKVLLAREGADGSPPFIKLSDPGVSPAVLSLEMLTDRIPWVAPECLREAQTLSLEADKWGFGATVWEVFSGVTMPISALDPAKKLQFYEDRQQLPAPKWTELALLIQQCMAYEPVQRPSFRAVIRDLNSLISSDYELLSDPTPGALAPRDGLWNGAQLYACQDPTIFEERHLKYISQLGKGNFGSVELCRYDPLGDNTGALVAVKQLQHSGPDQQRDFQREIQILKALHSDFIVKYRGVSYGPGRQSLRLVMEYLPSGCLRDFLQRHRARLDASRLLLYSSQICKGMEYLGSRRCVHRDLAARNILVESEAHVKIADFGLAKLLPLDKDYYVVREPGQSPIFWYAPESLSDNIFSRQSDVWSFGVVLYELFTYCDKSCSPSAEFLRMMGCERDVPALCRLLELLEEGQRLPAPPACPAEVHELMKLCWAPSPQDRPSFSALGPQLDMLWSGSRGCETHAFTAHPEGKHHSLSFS
EphB2, sequence (P29323 19-1055, species assumed): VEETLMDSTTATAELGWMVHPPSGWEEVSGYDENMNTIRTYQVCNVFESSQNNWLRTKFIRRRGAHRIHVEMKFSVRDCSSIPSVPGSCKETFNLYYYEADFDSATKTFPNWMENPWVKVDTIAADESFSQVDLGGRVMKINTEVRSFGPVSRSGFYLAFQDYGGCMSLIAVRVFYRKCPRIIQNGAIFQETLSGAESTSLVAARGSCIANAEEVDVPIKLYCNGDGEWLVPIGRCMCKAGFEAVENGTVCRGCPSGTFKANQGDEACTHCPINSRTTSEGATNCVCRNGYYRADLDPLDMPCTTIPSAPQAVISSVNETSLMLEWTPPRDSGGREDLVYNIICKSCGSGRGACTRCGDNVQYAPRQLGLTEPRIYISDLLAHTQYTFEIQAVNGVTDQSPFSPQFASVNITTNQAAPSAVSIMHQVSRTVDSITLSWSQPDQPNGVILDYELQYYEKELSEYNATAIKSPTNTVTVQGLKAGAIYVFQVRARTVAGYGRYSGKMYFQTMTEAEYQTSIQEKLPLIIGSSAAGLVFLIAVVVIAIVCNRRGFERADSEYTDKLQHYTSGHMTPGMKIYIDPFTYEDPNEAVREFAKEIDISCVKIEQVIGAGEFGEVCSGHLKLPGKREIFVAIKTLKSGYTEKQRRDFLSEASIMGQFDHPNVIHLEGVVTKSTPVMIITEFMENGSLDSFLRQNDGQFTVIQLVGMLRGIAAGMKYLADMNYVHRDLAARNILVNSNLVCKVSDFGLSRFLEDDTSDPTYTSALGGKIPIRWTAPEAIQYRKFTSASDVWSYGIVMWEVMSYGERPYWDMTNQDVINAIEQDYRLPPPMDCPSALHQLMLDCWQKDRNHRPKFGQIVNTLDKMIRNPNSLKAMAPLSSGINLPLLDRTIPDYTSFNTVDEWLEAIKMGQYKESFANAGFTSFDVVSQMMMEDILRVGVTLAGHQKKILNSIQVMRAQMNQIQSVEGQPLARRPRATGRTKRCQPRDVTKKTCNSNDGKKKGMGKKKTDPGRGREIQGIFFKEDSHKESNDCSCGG
FGFR1, sequence (P11362 22-822, species assumed): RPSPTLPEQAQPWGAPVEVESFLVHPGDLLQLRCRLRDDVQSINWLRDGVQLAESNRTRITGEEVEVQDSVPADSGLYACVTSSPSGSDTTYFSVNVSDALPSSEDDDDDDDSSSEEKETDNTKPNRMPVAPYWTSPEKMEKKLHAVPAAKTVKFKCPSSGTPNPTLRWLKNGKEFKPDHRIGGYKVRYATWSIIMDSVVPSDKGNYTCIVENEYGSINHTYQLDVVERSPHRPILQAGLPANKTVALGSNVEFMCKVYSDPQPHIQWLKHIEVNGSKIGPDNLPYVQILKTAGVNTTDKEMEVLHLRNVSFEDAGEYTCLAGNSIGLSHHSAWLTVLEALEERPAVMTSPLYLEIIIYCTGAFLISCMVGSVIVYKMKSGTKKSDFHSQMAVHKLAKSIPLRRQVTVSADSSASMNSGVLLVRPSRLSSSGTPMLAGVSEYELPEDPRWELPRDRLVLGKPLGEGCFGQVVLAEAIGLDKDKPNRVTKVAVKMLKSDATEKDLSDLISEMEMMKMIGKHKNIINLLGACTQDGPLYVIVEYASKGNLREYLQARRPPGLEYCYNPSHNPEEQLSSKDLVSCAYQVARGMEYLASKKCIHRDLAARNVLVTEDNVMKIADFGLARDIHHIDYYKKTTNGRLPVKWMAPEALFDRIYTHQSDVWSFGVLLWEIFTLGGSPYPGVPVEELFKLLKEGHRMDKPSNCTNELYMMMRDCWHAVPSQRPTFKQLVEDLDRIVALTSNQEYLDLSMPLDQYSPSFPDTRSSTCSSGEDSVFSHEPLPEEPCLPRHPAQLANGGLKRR

For `CC(=O)c1cc2c(=O)c3c(C(=O)O)c(O)c(O)cc3oc2c(C(C)=O)c1-c1coc2cc(O)c(O)c(C(=O)O)c2c1=O` [SM-345431, Vinaxanthone], the 50% inhibitory concentration (IC50) in experiment [1] was 0.1 to 0.2 µM; in experiment [2], above 10 µM; in experiment [3] it was above 10 µM; in experiment [4], above 10 µM; in [5], above 10 µM; in experiment [6] it was above 10 µM. The IC50 in experiment [7], in experiment [8], in [9], in experiment [10], in [11] and in experiment [12] was above 10 µM each time. In addition, the half-maximal inhibitory concentration (IC50) is 0.68 µM in [13]; above 10 µM in experiment [14]; above 10 µM in experiment [15]; 2.46 µM in experiment [16]; above 10 µM in experiment [17]; above 10 µM in experiment [18]. In experiment [19], the IC50 lay within 0.1 to 0.2 µM. In addition, the “semaphorin3A inhibitory activity compared with SM-216289” value in [1] is given as “approximately the same semaphorin3A inhibitory activity as SM-216289”.
